In patent publication US20240299361A1, “VETERINARY TRANSDERMAL GEL COMPRISING ONDANSETRON, AND RELATED METHODS” (Verté Therapeutics, LLC, priority 2023, published 2024):
Where a name gives a salt, the structure may show the parent alone.

Test: Visual solubility screen for Ondansetron HCl in solvents/excipients
Assay type: physicochemical
Protocol: The purpose of this study was to evaluate the solubility of Ondansetron HCl in an array of solvents/excipients to develop a stable topical formulation for transdermal application in cats and dogs. In this screen, evaluation of solubility was determined by visual examination only.
The following procedure was used to determine solubility of the API (Ondansetron HCl): • a. Label 20 mL USP Type I scintillation vials appropriately for each solvent/solvent blend that will be tested. Although API is light sensitive, clear glass vials will be used, as the study is a visual assessment only. • b. Place a stir bar in each vial. Weigh the empty vial containing stir bar and cap with inert liner. Record the tare weight. • c. Weigh approximately 3.0 g of each solvent into the designated vial. • d. Weigh approximately 30.0 mg of the API into each vial. • e. Place all closed vials on a stir plate and allow mixing for at least 30 minutes at ambient conditions. • f. Visually inspect to see if the API has completely dissolved. Record the stir time and observations. • g. If the API has dissolved, repeat steps d to f until saturation solubility is achieved or up to 10% w/w. • h. Record additional API aliquots added to the mixture. Continue stirring solutions overnight at ambient temperature to confirm solubility is maintained. • i. Record the final weight of the vial, cap, stir bar, and sample to calculate the total amount of active and/or solvent added at room temperature. • j. Heat (if applicable) all the vials in which API is not soluble to 65° C. for 1 hour and check the solubility. Allow them to cool to room temperature and check for any precipitation in the vials in which API was soluble when heated. Perform microscopy as deemed necessary. • k. Confirm the pH of buffer solutions after addition and solubilization (if applicable) of the API. • l. Record final observations and take pictures as needed to document the observations.
Upon addition of Ondansetron HCl to each solvent, vials were subjected to stirring at room temperature at 400 RPM.
For the secondary solvent solubility screen, solvents which required heating as primary systems were blended at a 1:1 ratio with other solubilizers being screened.

## Cc1nccn1CC1CCc2c(c3ccccc3n2C)C1=O (stereo not shown) [Ondansetron HCl]
In Citrate buffer USP (pH 3.0), without heating
  Solubility (visual): at least 1 % w/w
In DMSO
  Solubility achieved (visual): ≥ 10%
In DMSO, without heating
  Solubility (visual): at least 1 % w/w
In PEG 400, without heating
  Solubility (visual): at least 1 % w/w
In absolute alcohol, without heating
  Solubility (visual): at least 1 % w/w
In benzyl alcohol
  Solubility achieved (visual): ≥ 10%
In benzyl alcohol, without heating
  Solubility (visual): at least 1 % w/w
In diethylene glycol monoethyl ether, without heating
  Solubility (visual): at least 1 % w/w
In propylene glycol
  Solubility achieved (visual): ≥ 10%
In propylene glycol, without heating
  Solubility (visual): at least 1 % w/w
